Measurements from US20210330611A1, “THERAPY FOR NEUROLOGICAL DISEASES/DISORDERS” (priority 2020, published 2021).
Where a name gives a salt, the structure may show the parent alone. Read-outs that look alike come from different tables or passages of the source. Where a SMILES comes first, the peptide text is derived from it.

Columns and labels:
[1] = tested on: LPS-induced microglia activation; assay: Image-based assay of LPS-induced microglia activation (HTS and dose response); format: cell-based, rat; settings: for inhibition at 10 µM: Rattus norvegicus, Microglia, read-out: LPS % inhibition
[2] = tested on: fibrin- and LPS-induced microglia activation; assay: cells; format: cell-based, rat
[3] = tested on: fibrin-induced microglia activation; assay: Image-based assay of fibrin-induced microglia activation (HTS and dose response); format: cell-based, rat; settings: primary microglia HTS, fibrin stimulation; for inhibition at 10 µM: Rattus norvegicus, Microglia, read-out: Fibrin % inhibition
primary rat microglia [4] = assay: Cell toxicity (dead cells, size <150 μm2) in coated fibrin (cFib) assay; settings: primary microglia HTS;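 further: share of dead cells sized under 150 µm2 at 10 µM in fibrin-stimulated microglia HTS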
primary rat microglia [5] = tested on: primary rat microglia
[6] = classification by fibrin and LPS inhibition in HTS
[7] = cell size >800 μm2 as marker of activation
[8] = fibrin stimulation, cell size <150 μm2 as marker of toxicity
[9] = primary microglia HTS, LPS stimulation, compounds at 10 μM
[10] = classification by fibrin and LPS inhibition, HTS at 10 μM
[11] = fibrin assay, dead cells (size <150 μm2), compounds at 10 μM
[12] = quadrant by fibrin and LPS inhibition, HTS at 10 μM
[13] = fibrin assay, dead cells (size <150 μm2)

Cc1ccc(N(CC2=NCCN2)c2cccc(O)c2)cc1 [Phentolamine]
inhibition at 10 µM ([1]; 48 h): 17% | Quadrant (FIG. 5b) [2, 6]: Q4 | inhibition at 10 µM [3, 7]: -21% | Fibrin % cell toxicity (primary rat microglia [4]; [8]): 0% | LPS % cell toxicity (primary rat microglia [5]; rat): 0%

CN(C)CCc1c[nH]c2ccc(Cn3cncn3)cc12 [Rizatriptan]
inhibition at 10 µM ([1]; 48 h): 10% | Quadrant (FIG. 5b) [2, 6]: Q4 | inhibition at 10 µM [3, 7]: -9% | Fibrin % cell toxicity (primary rat microglia [4]; [8]): 1% | LPS % cell toxicity (primary rat microglia [5]; rat): 0%

O=C(O)c1ccccc1C(=O)Nc1ccc(S(=O)(=O)Nc2nccs2)cc1 [Phthalylsulfathiazole]
inhibition at 10 µM ([1]; 48 h): 13% | Quadrant (FIG. 5b) [2, 6]: Q4 | inhibition at 10 µM [3, 7]: 3% | Fibrin % cell toxicity (primary rat microglia [4]; [8]): 1% | LPS % cell toxicity (primary rat microglia [5]; rat): 1%

N#C[C@@H]1C[C@@H]2C[C@@H]2N1C(=O)[C@@H](N)C12CC3CC(CC(O)(C3)C1)C2 [Saxagliptin]
inhibition at 10 µM ([1]; 48 h): 38% | Quadrant (FIG. 5b) [2, 6]: Q4 | inhibition at 10 µM [3, 7]: 34% | Fibrin % cell toxicity (primary rat microglia [4]; [8]): 1% | LPS % cell toxicity (primary rat microglia [5]; rat): 0%

CN1CCN(c2cc3c(cc2F)c(=O)c(C(=O)O)cn3-c2ccc(F)cc2)CC1 [Difloxacin Hydrochloride]
inhibition at 10 µM [1, 9]: 33% | Quadrant (FIG. 5b) [2, 10]: Q4 | inhibition at 10 µM ([3]; compounds at 10 μM): 25% | Fibrin % cell toxicity (primary rat microglia [4]; [11]): 1% | LPS % cell toxicity (primary rat microglia [5]; rat): 1%

O=C(CNC(=O)c1ccc(Cl)cc1)NO [Benurestat]
LPS % inhibition [1, 9]: 22% | Quadrant (FIG. 5b) [2, 12]: Q4 | Fibrin % inhibition ([3]; compounds at 10 μM): 6% | Fibrin % cell toxicity (primary rat microglia [4]; [13]): 1% | LPS % cell toxicity (primary rat microglia [5]): 1%

COC(=O)[C@H](Cc1ccccc1)NC(=O)[C@@H](N)CC(=O)O [Aspartame] (H-Asp-Phe-OMe)
inhibition at 10 µM [1, 9]: 7% | Quadrant (FIG. 5b) [2, 12]: Q4 | inhibition at 10 µM ([3]; compounds at 10 μM): -15% | Fibrin % cell toxicity (primary rat microglia [4]; [13]): 1% | LPS % cell toxicity (primary rat microglia [5]; rat): 0%

CN(CCOc1ccc(NS(C)(=O)=O)cc1)CCc1ccc(NS(C)(=O)=O)cc1 [Dofetilide]
inhibition at 10 µM [1, 9]: 5% | Quadrant (FIG. 5b) [2, 10]: Q4 | inhibition at 10 µM ([3]; compounds at 10 μM): -26% | Fibrin % cell toxicity (primary rat microglia [4]; [11]): 1% | LPS % cell toxicity (primary rat microglia [5]; rat): 0%

OC(CCN1CCCCC1)(c1ccccc1)c1ccccc1 [Pridinol]
inhibition at 10 µM ([1]; 48 h): 4% | Quadrant (FIG. 5b) [2, 6]: Q4 | inhibition at 10 µM [3, 7]: -18% | Fibrin % cell toxicity (primary rat microglia [4]; [8]): 1% | LPS % cell toxicity (primary rat microglia [5]; rat): 0%

Nc1nc2c(ncn2CCC(CO)CO)c(=O)[nH]1 [Penciclovir]
inhibition at 10 µM ([1]; 48 h): 4% | Quadrant (FIG. 5b) [2, 6]: Q4 | inhibition at 10 µM [3, 7]: -44% | Fibrin % cell toxicity (primary rat microglia [4]; [8]): 1% | LPS % cell toxicity (primary rat microglia [5]; rat): 0%

CC(=O)NO [Acetohydroxamic Acid]
inhibition at 10 µM [1, 9]: 12% | Quadrant (FIG. 5b) [2, 12]: Q4 | inhibition at 10 µM ([3]; compounds at 10 μM): -3% | Fibrin % cell toxicity (primary rat microglia [4]; [13]): 0% | LPS % cell toxicity (primary rat microglia [5]; rat): 0%

CCOC(=O)[C@H](CCc1ccccc1)N[C@H]1CCc2ccccc2N(CC(=O)O)C1=O [Benazepril]
inhibition at 10 µM [1, 9]: 26% | Quadrant (FIG. 5b) [2, 12]: Q4 | inhibition at 10 µM ([3]; compounds at 10 μM): 0% | Fibrin % cell toxicity (primary rat microglia [4]; [13]): 1% | LPS % cell toxicity (primary rat microglia [5]; rat): 1%

CC(=O)Nc1cc([As](=O)(O)O)ccc1O [Acetarsol]
inhibition at 10 µM [1, 9]: 13% | Quadrant (FIG. 5b) [2, 12]: Q4 | inhibition at 10 µM ([3]; compounds at 10 μM): -12% | Fibrin % cell toxicity (primary rat microglia [4]; [13]): 0% | LPS % cell toxicity (primary rat microglia [5]; rat): 0%

CCc1nc(N)nc(N)c1-c1ccc(Cl)cc1 [Pyrimethamine]
inhibition at 10 µM ([1]; 48 h): 12% | Quadrant (FIG. 5b) [2, 6]: Q4 | inhibition at 10 µM [3, 7]: -11% | Fibrin % cell toxicity (primary rat microglia [4]; [8]): 1% | LPS % cell toxicity (primary rat microglia [5]; rat): 1%

CC(O)Cn1cnc2c1c(=O)n(C)c(=O)n2C (stereo not drawn) [Proxyphylline]
inhibition at 10 µM ([1]; 48 h): 11% | Quadrant (FIG. 5b) [2, 6]: Q4 | inhibition at 10 µM [3, 7]: -21% | Fibrin % cell toxicity (primary rat microglia [4]; [8]): 1% | LPS % cell toxicity (primary rat microglia [5]; rat): 0%

CCCc1ncc(C[n+]2ccccc2C)c(N)n1 [Amprolium]
inhibition at 10 µM [1, 9]: 8% | Quadrant (FIG. 5b) [2, 12]: Q4 | inhibition at 10 µM ([3]; compounds at 10 μM): -10% | Fibrin % cell toxicity (primary rat microglia [4]; [13]): 1% | LPS % cell toxicity (primary rat microglia [5]; rat): 0%

CCOc1ccccc1C(N)=O [Ethenzamide]
inhibition at 10 µM [1, 9]: 5% | Quadrant (FIG. 5b) [2, 10]: Q4 | inhibition at 10 µM ([3]; compounds at 10 μM): -15% | Fibrin % cell toxicity (primary rat microglia [4]; [11]): 1% | LPS % cell toxicity (primary rat microglia [5]; rat): 0%

Nc1cc(-c2ccncc2)c[nH]c1=O [Amrinone, Inamrinone]
LPS % inhibition [1, 9]: 18% | Quadrant (FIG. 5b) [2, 12]: Q4 | Fibrin % inhibition ([3]; compounds at 10 μM): 1% | Fibrin % cell toxicity (primary rat microglia [4]; [13]): 1% | LPS % cell toxicity (primary rat microglia [5]): 0%

CCCOc1cc(N)ccc1C(=O)OCCN(CC)CC [Propoxycaine]
inhibition at 10 µM ([1]; 48 h): 14% | Quadrant (FIG. 5b) [2, 6]: Q4 | inhibition at 10 µM [3, 7]: 13% | Fibrin % cell toxicity (primary rat microglia [4]; [8]): 0% | LPS % cell toxicity (primary rat microglia [5]; rat): 0%

C/C(=C(\CCOP(=O)(O)O)SC(=O)c1ccccc1)N(C=O)Cc1cnc(C)nc1N [Benfotiamine]
inhibition at 10 µM [1, 9]: 18% | Quadrant (FIG. 5b) [2, 12]: Q4 | inhibition at 10 µM ([3]; compounds at 10 μM): -47% | Fibrin % cell toxicity (primary rat microglia [4]; [13]): 0% | LPS % cell toxicity (primary rat microglia [5]; rat): 0%

COc1ccc(C(=O)c2ccccc2O)c(O)c1 [Dioxybenzone]
inhibition at 10 µM [1, 9]: 16% | Quadrant (FIG. 5b) [2, 10]: Q4 | inhibition at 10 µM ([3]; compounds at 10 μM): -4% | Fibrin % cell toxicity (primary rat microglia [4]; [11]): 1% | LPS % cell toxicity (primary rat microglia [5]; rat): 0%

Nc1nc(N)nc(NC2CC2)n1 [Cyromazine]
inhibition at 10 µM [1, 9]: 9% | Quadrant (FIG. 5b) [2, 10]: Q4 | inhibition at 10 µM ([3]; compounds at 10 μM): -9% | Fibrin % cell toxicity (primary rat microglia [4]; [11]): 1% | LPS % cell toxicity (primary rat microglia [5]; rat): 0%

CN1CCCC(n2nc(Cc3ccc(Cl)cc3)c3ccccc3c2=O)CC1 (stereo not drawn) [Azelastine, Azelastine Hydrochloride]
LPS % inhibition [1, 9]: 11% | Quadrant (FIG. 5b) [2, 12]: Q4 | Fibrin % inhibition ([3]; compounds at 10 μM): 5% | Fibrin % cell toxicity (primary rat microglia [4]; [13]): 0% | LPS % cell toxicity (primary rat microglia [5]): 0%

CC1(C)S[C@@H]2[C@H](NC(=O)COc3ccccc3)C(=O)N2[C@H]1C(=O)O [Phenoxymethylpenicillin]
inhibition at 10 µM ([1]; 48 h): 14% | Quadrant (FIG. 5b) [2, 6]: Q4 | inhibition at 10 µM [3, 7]: 0% | Fibrin % cell toxicity (primary rat microglia [4]; [8]): 1% | LPS % cell toxicity (primary rat microglia [5]; rat): 0%

Eprinomectin
LPS % inhibition [1, 9]: 8% | Quadrant (FIG. 5b) [2, 10]: Q4 | Fibrin % inhibition ([3]; compounds at 10 μM): −3% | Fibrin % cell toxicity (primary rat microglia [4]; [11]): 1% | LPS % cell toxicity (primary rat microglia [5]): 1%

Nc1ncnc2c1ncn2[C@@H]1O[C@H](COP(=O)(O)O)[C@@H](O)[C@H]1O [Adenosine monophosphate]
LPS % inhibition ([1]; primary microglia HTS, LPS stimulation, compounds at 10 μM, 10 µM): 4% | Quadrant (FIG. 5b) [2, 12]: Q4 | Fibrin % inhibition ([3]; compounds at 10 μM, 10 µM): −30% | Fibrin % cell toxicity (primary rat microglia [4]; [13]): 1% | LPS % cell toxicity (primary rat microglia [5]; rat): 0%

CCCCOC(=O)c1ccccc1C(=O)OCCCC [Dibutyl Phthalate]
inhibition at 10 µM [1, 9]: 9% | Quadrant (FIG. 5b) [2, 10]: Q4 | inhibition at 10 µM ([3]; compounds at 10 μM): -30% | Fibrin % cell toxicity (primary rat microglia [4]; [11]): 1% | LPS % cell toxicity (primary rat microglia [5]; rat): 0%

CC(=O)Nc1ccc(CC(=O)O)cc1 [Actarit]
inhibition at 10 µM [1, 9]: 9% | Quadrant (FIG. 5b) [2, 12]: Q4 | inhibition at 10 µM ([3]; compounds at 10 μM): 11% | Fibrin % cell toxicity (primary rat microglia [4]; [13]): 1% | LPS % cell toxicity (primary rat microglia [5]; rat): 0%

Nc1nccs1 [Aminothiazole]
inhibition at 10 µM [1, 9]: 17% | Quadrant (FIG. 5b) [2, 12]: Q4 | inhibition at 10 µM ([3]; compounds at 10 μM): -31% | Fibrin % cell toxicity (primary rat microglia [4]; [13]): 1% | LPS % cell toxicity (primary rat microglia [5]; rat): 1%

CC[C@H](C)C(=O)O[C@H]1C[C@H](O)C=C2C=C[C@H](C)[C@H](CC[C@@H](O)C[C@@H](O)CC(=O)O)[C@H]21 [Pravastatin Sodium]
LPS % inhibition [1]: 11% | Quadrant (FIG. 5b) [2, 6]: Q4 | Fibrin % inhibition [3, 7]: 21% | Fibrin % cell toxicity (primary rat microglia [4]; [8]): 1% | LPS % cell toxicity (primary rat microglia [5]; rat): 0%
